Measurements from the NIST ThermoML archive (doi:10.1021/acs.jced.7b01006).
± gives the expanded uncertainty stated by the source.

Assay: xn = mol fraction of the nth substance listed
Conditions: 100 kPa, Liquid; for electrical conductivity: Alternating current cell with electrodes; for viscosity: Falling or rolling sphere viscometry; for mass density: Vibrating tube method

CCCCn1cc[n+](C)c1C.N#C[S-] [1-butyl-2,3-dimethylimidazolium thiocyanate] + CC#N
Conditions | electrical conductivity [S/m] | mass density [kg/m3] | viscosity [mPa·s]
288.15 K, x1 = 0.1001 | 4.72 ± 0.47 | 888.99 ± 2 | 16.94 ± 0.24
288.15 K, x1 = 0.2004 | 4.01 ± 0.4 | 951.31 ± 2 | 38.93 ± 0.55
288.15 K, x1 = 0.2999 | 3.35 ± 0.34 | 995.07 ± 2.1 | 67.12 ± 1.1
288.15 K, x1 = 0.4003 | 1.19 ± 0.12 | 1026.63 ± 2.1 | 102.7 ± 2.7
288.15 K, x1 = 0.5001 | 0.765 ± 0.077 | 1038.63 ± 2.2 | 145.4 ± 5.4
288.15 K, x1 = 0.5999 | 0.599 ± 0.06 | 1050.73 ± 2.2 | 193.9 ± 9.1
288.15 K, x1 = 0.6999 | 0.429 ± 0.043 | 1062.95 ± 2.4 | 249.1 ± 14
288.15 K, x1 = 0.8002 | 0.358 ± 0.036 | 1068.26 ± 2.5 | 310.4 ± 20
288.15 K, x1 = 0.9002 | 0.24 ± 0.024 | 1075.99 ± 2.7 | 377.8 ± 26
288.15 K, x1 = 1 | 0.106 ± 0.011 | 1084.2 ± 2.9 | 452.7 ± 34
293.15 K, x1 = 0.1001 | 5.01 ± 0.5 | 885.19 ± 2 | 11.74 ± 0.16
293.15 K, x1 = 0.2004 | 4.34 ± 0.43 | 948.02 ± 2 | 27.08 ± 0.39
293.15 K, x1 = 0.2999 | 3.71 ± 0.37 | 991.9 ± 2.1 | 46.77 ± 0.69
293.15 K, x1 = 0.4003 | 1.45 ± 0.15 | 1024 ± 2.1 | 71.58 ± 1.2
293.15 K, x1 = 0.5001 | 0.919 ± 0.092 | 1036.16 ± 2.2 | 100.9 ± 2.6
293.15 K, x1 = 0.5999 | 0.728 ± 0.073 | 1048.16 ± 2.2 | 134.8 ± 4.7
293.15 K, x1 = 0.6999 | 0.531 ± 0.053 | 1060.42 ± 2.4 | 172.9 ± 7.5
293.15 K, x1 = 0.8002 | 0.458 ± 0.046 | 1066.14 ± 2.5 | 214.7 ± 11
293.15 K, x1 = 0.9002 | 0.316 ± 0.032 | 1073.56 ± 2.6 | 260.4 ± 15
293.15 K, x1 = 1 | 0.153 ± 0.015 | 1081.11 ± 2.9 | 311.3 ± 20
298.15 K, x1 = 0.1001 | 5.31 ± 0.53 | 881.36 ± 2 | 8.229 ± 0.11
298.15 K, x1 = 0.2004 | 4.69 ± 0.47 | 944.6 ± 2 | 18.85 ± 0.27
298.15 K, x1 = 0.2999 | 4.05 ± 0.41 | 988.57 ± 2.1 | 32.07 ± 0.47
298.15 K, x1 = 0.4003 | 1.71 ± 0.17 | 1021.27 ± 2.1 | 49.45 ± 0.76
298.15 K, x1 = 0.5001 | 1.12 ± 0.11 | 1033.49 ± 2.2 | 69.9 ± 1.2
298.15 K, x1 = 0.5999 | 0.891 ± 0.089 | 1045.66 ± 2.2 | 93.7 ± 2.3
298.15 K, x1 = 0.6999 | 0.654 ± 0.065 | 1057.9 ± 2.4 | 119.9 ± 3.8
298.15 K, x1 = 0.8002 | 0.57 ± 0.057 | 1063.84 ± 2.5 | 148.9 ± 5.8
298.15 K, x1 = 0.9002 | 0.39 ± 0.039 | 1071.37 ± 2.6 | 181 ± 8.2
298.15 K, x1 = 1 | 0.217 ± 0.022 | 1078.2 ± 2.8 | 218 ± 11
303.15 K, x1 = 0.1001 | 5.61 ± 0.56 | 877.5 ± 2 | 5.854 ± 0.081
303.15 K, x1 = 0.2004 | 5.03 ± 0.5 | 941.34 ± 2 | 12.95 ± 0.18
303.15 K, x1 = 0.2999 | 4.42 ± 0.44 | 985.32 ± 2.1 | 22.58 ± 0.33
303.15 K, x1 = 0.4003 | 2.01 ± 0.2 | 1018.59 ± 2.1 | 34.51 ± 0.53
303.15 K, x1 = 0.5001 | 1.32 ± 0.13 | 1030.79 ± 2.2 | 49.24 ± 0.78
303.15 K, x1 = 0.5999 | 1.06 ± 0.11 | 1043.17 ± 2.2 | 66.62 ± 1.2
303.15 K, x1 = 0.6999 | 0.795 ± 0.08 | 1055.17 ± 2.4 | 85.89 ± 2
303.15 K, x1 = 0.8002 | 0.697 ± 0.07 | 1061.75 ± 2.5 | 106.9 ± 3.1
303.15 K, x1 = 0.9002 | 0.497 ± 0.05 | 1068.94 ± 2.6 | 130.3 ± 4.6
303.15 K, x1 = 1 | 0.293 ± 0.029 | 1075.18 ± 2.8 | 157.9 ± 6.6
308.15 K, x1 = 0.1001 | 5.92 ± 0.59 | 873.64 ± 2 | 4.393 ± 0.061
308.15 K, x1 = 0.2004 | 5.36 ± 0.54 | 938.14 ± 2 | 9.306 ± 0.13
308.15 K, x1 = 0.2999 | 4.79 ± 0.48 | 982.11 ± 2.1 | 16.16 ± 0.24
308.15 K, x1 = 0.4003 | 2.34 ± 0.23 | 1015.92 ± 2.1 | 24.59 ± 0.38
308.15 K, x1 = 0.5001 | 1.56 ± 0.16 | 1028.06 ± 2.2 | 34.95 ± 0.56
308.15 K, x1 = 0.5999 | 1.26 ± 0.13 | 1040.79 ± 2.2 | 47.89 ± 0.79
308.15 K, x1 = 0.6999 | 0.96 ± 0.096 | 1052.69 ± 2.4 | 62.82 ± 1.1
308.15 K, x1 = 0.8002 | 0.853 ± 0.085 | 1059.56 ± 2.5 | 78.98 ± 1.7
308.15 K, x1 = 0.9002 | 0.61 ± 0.061 | 1066.57 ± 2.6 | 97.33 ± 2.6
308.15 K, x1 = 1 | 0.386 ± 0.039 | 1072.16 ± 2.8 | 118.9 ± 3.9
313.15 K, x1 = 0.1001 | 6.23 ± 0.62 | 869.75 ± 2 | 3.257 ± 0.045
313.15 K, x1 = 0.2004 | 5.7 ± 0.57 | 934.72 ± 2 | 6.633 ± 0.094
313.15 K, x1 = 0.2999 | 5.15 ± 0.52 | 978.72 ± 2.1 | 11.34 ± 0.17
313.15 K, x1 = 0.4003 | 2.67 ± 0.27 | 1013.21 ± 2.1 | 17.39 ± 0.27
313.15 K, x1 = 0.5001 | 1.81 ± 0.18 | 1025.43 ± 2.2 | 25.45 ± 0.4
313.15 K, x1 = 0.5999 | 1.48 ± 0.15 | 1038.3 ± 2.2 | 35.42 ± 0.59
313.15 K, x1 = 0.6999 | 1.16 ± 0.12 | 1050.1 ± 2.4 | 46.81 ± 0.8
313.15 K, x1 = 0.8002 | 1.03 ± 0.1 | 1057.26 ± 2.5 | 59.49 ± 1
313.15 K, x1 = 0.9002 | 0.749 ± 0.075 | 1064.3 ± 2.6 | 73.79 ± 1.6
313.15 K, x1 = 1 | 0.496 ± 0.05 | 1069.15 ± 2.8 | 90.46 ± 2.3
318.15 K, x1 = 0.1001 | 6.53 ± 0.65 | 865.95 ± 2 | 2.458 ± 0.034
318.15 K, x1 = 0.2004 | 6.03 ± 0.6 | 931.41 ± 2 | 4.722 ± 0.067
318.15 K, x1 = 0.2999 | 5.52 ± 0.55 | 975.35 ± 2.1 | 8.162 ± 0.12
318.15 K, x1 = 0.4003 | 3.03 ± 0.3 | 1010.57 ± 2.1 | 12.95 ± 0.2
318.15 K, x1 = 0.5001 | 2.07 ± 0.21 | 1022.69 ± 2.2 | 18.62 ± 0.3
318.15 K, x1 = 0.5999 | 1.73 ± 0.17 | 1035.83 ± 2.2 | 26.33 ± 0.43
318.15 K, x1 = 0.6999 | 1.38 ± 0.14 | 1047.6 ± 2.3 | 35.55 ± 0.61
318.15 K, x1 = 0.8002 | 1.23 ± 0.12 | 1055.02 ± 2.5 | 46.09 ± 0.82
318.15 K, x1 = 0.9002 | 0.913 ± 0.091 | 1061.87 ± 2.6 | 57.94 ± 1
318.15 K, x1 = 1 | 0.627 ± 0.063 | 1066.16 ± 2.8 | 72.04 ± 1.5
323.15 K, x1 = 0.1001 | 6.83 ± 0.68 | 862.09 ± 2 | 1.882 ± 0.026
323.15 K, x1 = 0.2004 | 6.37 ± 0.64 | 927.98 ± 2 | 3.578 ± 0.051
323.15 K, x1 = 0.2999 | 5.89 ± 0.59 | 972.17 ± 2.1 | 5.904 ± 0.087
323.15 K, x1 = 0.4003 | 3.4 ± 0.34 | 1007.9 ± 2.1 | 9.491 ± 0.14
323.15 K, x1 = 0.5001 | 2.37 ± 0.24 | 1020.14 ± 2.1 | 13.67 ± 0.22
323.15 K, x1 = 0.5999 | 2.01 ± 0.2 | 1033.37 ± 2.2 | 19.96 ± 0.33
323.15 K, x1 = 0.6999 | 1.63 ± 0.16 | 1045.21 ± 2.3 | 27.68 ± 0.48
323.15 K, x1 = 0.8002 | 1.46 ± 0.15 | 1052.82 ± 2.5 | 36.89 ± 0.66
323.15 K, x1 = 0.9002 | 1.1 ± 0.11 | 1059.62 ± 2.6 | 46.83 ± 0.87
323.15 K, x1 = 1 | 0.774 ± 0.077 | 1063.2 ± 2.8 | 57.11 ± 1.1
